23 compounds from patent US20150274664A1 (MERCK SHARP & DOHME CORP., priority 2012, published 2015) can be followed below.

The assay has as its target T1, human GPR119 (Homo sapiens, UniProt Q8TDV5).
T1 construct: expressed in transfected cells; host or cells: HEK293
T1 sequence (Q8TDV5 1-335): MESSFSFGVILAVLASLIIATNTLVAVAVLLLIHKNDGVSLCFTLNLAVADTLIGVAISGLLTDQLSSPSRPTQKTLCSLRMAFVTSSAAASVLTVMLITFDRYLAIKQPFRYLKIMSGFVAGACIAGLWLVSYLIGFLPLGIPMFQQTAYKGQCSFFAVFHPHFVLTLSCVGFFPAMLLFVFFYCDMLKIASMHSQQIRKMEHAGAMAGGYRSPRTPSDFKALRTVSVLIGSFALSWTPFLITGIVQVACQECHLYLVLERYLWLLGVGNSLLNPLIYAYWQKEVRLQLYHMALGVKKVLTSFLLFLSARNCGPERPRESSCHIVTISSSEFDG
Put plainly: Measurement of GPR119 signaling using LANCE 384-well cAMP kit (LCMP assay). As to conditions: HEK293 cells stably transfected with human GPR119. Format: cell-based. The method, then: Measurement of GPR119 Signaling Using LANCE 384-Well cAMP Kit (LCMP Assay)
Human embryonic kidney (HEK) 293 cell lines stably transfected with human GPR119 were maintained in DMEM media containing FBS, penicillin-streptomycin, HEPES, and hygromycin. For the cAMP assay, the transfected cells were harvested using a non-enzymatic cell dissociation solution (GIBCO 2672), pelleted and resuspended in stimulation buffer (DMEM, 25 mM Hepes, 0.1% BSA, pH 7.4 in the presence of 100 μM phosphodiesterase inhibitors). The adenylate cyclase assay was constructed following the LANCE™ cAMP Kit (Perkin Elmer, AD0264) instructions. Briefly, cells with Alexa Fluor® 647-anti cAMP antibody were incubated with 10 point series diluted test article in stimulation buffer with a final concentration of 2.5% DMSO for 45 minutes. The reaction was stopped by incubating with the supplied detection buffer containing the europium chelate of the Eu-SA/Biotin-cAMP tracer for 3 hours. The assay was performed in duplicate in a 384 well plate for duplicate plates. Fluorescence at 665 nm was measured using a PHERAstar instrument. Basal activity was determined using a DMSO control and maximum response was defined as cAMP stimulation produced by an internal agonist control. Standard cAMP concentrations were assayed concurrently for conversion of fluorescence signal to cAMP level. The data was analyzed using 4-parameter curve fit in Microsoft Excel.
The compound `CS(=O)(=O)c1ccc(COC[C@H]2C[C@@H]2C2CCN(c3ncc(Cl)cn3)CC2)c(F)c1` [Example 4] registered an EC50 of 1.6 nM.

With `CCc1cnc(N2CCC([C@H]3C[C@@H]3COCc3ccc(S(C)(=O)=O)cc3F)CC2)nc1` [Example 8, 5-ethyl-2-(4-((1R,2S)-2-(((2-fluoro-4-(methylsulfonyl)benzyl)oxy)methyl)cyclopropyl)piperidin-1-yl)pyrimidine], the midpoint of the response, the EC50, lay at 1.3 nM.

For the compound `CCc1cnc(N2CCC([C@H]3C[C@@H]3COCc3ccc(S(=O)(=O)CC)cc3)CC2)nc1` [Example 9, 5-ethyl-2-(4-((1R,2S)-2-(((4-(ethylsulfonyl)benzyl)oxy)methyl)cyclopropyl)piperidin-1-yl)pyrimidine], the EC50 is 22 nM.

The compound `COCc1cnc(N2CCC([C@H]3C[C@@H]3COCc3ccc(S(C)(=O)=O)cc3F)CC2)nc1` [Example 11, 2-(4-((1R,2S)-2-(((2-fluoro-4-(methylsulfonyl)benzyl)oxy)methyl)cyclopropyl)piperidin-1-yl)-5-(methoxymethyl)pyrimidine] came in with an EC50 of 7.1 nM.

With `COCc1cnc(N2CCC([C@H]3C[C@@H]3COCc3ccc(S(C)(=O)=O)cc3)CC2)nc1` [Example 12, 5-(methoxymethyl)-2-(4-((1R,2S)-2-(((4-(methylsulfonyl)benzyl)oxy)methyl)cyclopropyl)piperidin-1-yl)pyrimidine], it took 14 nM to reach a half-maximal effect (EC50).

Take `CCS(=O)(=O)c1ccc(COC[C@H]2C[C@@H]2C2CCN(c3ncc(COC)cn3)CC2)cc1` [Example 13, 2-(4-((1R,2S)-2-(((4-(ethylsulfonyl)benzyl)oxy)methyl)cyclopropyl)piperidin-1-yl)-5-(methoxymethyl)pyrimidine]: the midpoint of the response, the EC50, lay at 24 nM.

Compound `CC1(OC(=O)N2CCC([C@H]3C[C@@H]3COCc3ccc(S(C)(=O)=O)cc3F)CC2)CC1` [Example 14, 1-methylcyclopropyl 4-((1R,2S)-2-((2-fluoro-4-(methylsulfonyl)benzyloxy)methyl)cyclopropyl)piperidine-1-carboxylate] displayed a 50% effective concentration (EC50) of 8.8 nM.

`CC1(OC(=O)N2CCC([C@H]3C[C@@H]3COCc3ccc(CC(=O)N4CCC4)cc3F)CC2)CC1` [Example 23, 1-methylcyclopropyl 4-((1R,2S)-2-((4-(2-(azetidin-1-yl)-2-oxoethyl)-2-fluorobenzyloxy)methyl)cyclopropyl)piperidine-1-carboxylate]: the EC50 was 13 nM.

In turn, `CS(=O)(=O)c1ccc(OCC[C@@H]2C[C@H]2C2CCN(c3ncc(Cl)cn3)CC2)cc1F` [Example 24, 5-chloro-2-(4-((1S,2S)-2-(2-(3-fluoro-4-(methylsulfonyl)phenoxy)ethyl)cyclopropyl)piperidin-1-yl)pyrimidine] yielded an EC50 of 8.3 nM.

For the compound `CS(=O)(=O)c1ccc(OCC[C@H]2C[C@@H]2C2CCN(c3ncc(Cl)cn3)CC2)cc1F` [Example 25, 5-chloro-2-(4-((1R,2R)-2-(2-(3-fluoro-4-(methylsulfonyl)phenoxy)ethyl)cyclopropyl)piperidin-1-yl)pyrimidine], the EC50 stood at 4.1 nM.

`CCc1cnc(N2CCC([C@@H]3C[C@H]3CCOc3ccc(S(C)(=O)=O)cc3F)CC2)nc1` [Example 26, 5-ethyl-2-(4-((1S,2S)-2-(2-(2-fluoro-4-(methylsulfonyl)phenoxy)ethyl)cyclopropyl)piperidin-1-yl)pyrimidine] showed an EC50 of 9.4 nM.

In turn, `CCc1cnc(N2CCC([C@H]3C[C@@H]3CCOc3ccc(S(C)(=O)=O)c(F)c3)CC2)nc1` [Example 27, 5-ethyl-2-(4-((1R,2R)-2-(2-(3-fluoro-4-(methylsulfonyl)phenoxy)ethyl)cyclopropyl)piperidin-1-yl)pyrimidine] showed an EC50 of 5.5 nM.

For the compound `CCc1cnc(N2CCC([C@H]3C[C@@H]3CCOc3ccc(S(C)(=O)=O)cc3F)CC2)nc1` [Example 28, 5-ethyl-2-(4-((1R,2R)-2-(2-(2-fluoro-4-(methylsulfonyl)phenoxy)ethyl)cyclopropyl)piperidin-1-yl)pyrimidine], the EC50 was 8.8 nM.

As for `CS(=O)(=O)c1ccc(OCC[C@@H]2C[C@H]2C2CCN(c3ncc(Cl)cn3)CC2)c(F)c1` [Example 29, 5-chloro-2-(4-((1S,2S)-2-(2-(2-fluoro-4-(methylsulfonyl)phenoxy)ethyl)cyclopropyl)piperidin-1-yl)pyrimidine], the response was half-maximal at 17 nM (EC50). This EC50 lies about 1.9-fold higher than the previous one.

`CS(=O)(=O)c1ccc(OCC[C@H]2C[C@@H]2C2CCN(c3ncc(Cl)cn3)CC2)c(F)c1` [Example 30, 5-chloro-2-(4-((1R,2R)-2-(2-(2-fluoro-4-(methylsulfonyl)phenoxy)ethyl)cyclopropyl)piperidin-1-yl)pyrimidine] gave an EC50 of 23 nM.

Take `CCc1cnc(N2CCC([C@@H]3C[C@H]3CCOc3ccc(S(C)(=O)=O)c(F)c3)CC2)nc1` [Example 31, 5-ethyl-2-(4-((1S,2S)-2-(2-(3-fluoro-4-(methylsulfonyl)phenoxy)ethyl)cyclopropyl)piperidin-1-yl)pyrimidine]: it took 16 nM to reach a half-maximal effect (EC50).

`CCc1cnc(N2CCC([C@@H]3C[C@H]3CCOc3ccc(S(=O)(=O)CC)cc3F)CC2)nc1` [Example 32, 5-ethyl-2-(4-((1S,2S)-2-(2-(4-(ethylsulfonyl)-2-fluorophenoxy)ethyl)cyclopropyl)piperidin-1-yl)pyrimidine]: the midpoint of the response, the EC50, lay at 18 nM. The EC50 values of the last two compounds are within 1.5-fold of each other.

Regarding `COCc1cnc(N2CCC([C@H]3C[C@@H]3CCOc3ccc(S(C)(=O)=O)c(F)c3)CC2)nc1` [Example 33, 2-(4-((1R,2R)-2-(2-(3-fluoro-4-(methylsulfonyl)phenoxy)ethyl)cyclopropyl)piperidin-1-yl)-5-(methoxymethyl)pyrimidine], the EC50 was determined as 15 nM.

In the case of `O=C(Cc1ccc(OCC[C@H]2C[C@@H]2C2CCN(c3ncc(Cl)cn3)CC2)cc1F)N1CCC1` [Example 34, 1-(azetidin-1-yl)-2-(4-(2-((1R,2R)-2-(1-(5-chloropyrimidin-2-yl)piperidin-4-yl)cyclopropyl)ethoxy)-2-fluorophenyl)ethanone], the EC50 was 0.64 nM.

The compound `O=C(Cc1ccc(OCC[C@H]2C[C@@H]2C2CCN(c3ncc(Cl)cn3)CC2)c(F)c1)N1CCC1` [Example 35, 1-(azetidin-1-yl)-2-(4-(2-((1R,2R)-2-(1-(5-chloropyrimidin-2-yl)piperidin-4-yl)cyclopropyl)ethoxy)-3-fluorophenyl)ethanone] showed a half-maximal effective concentration (EC50) of 4.6 nM.

In turn, `CCc1cnc(N2CCC([C@@H]3C[C@H]3CCOc3ccc(CC(=O)N4CCC4)c(F)c3)CC2)nc1` [Example 36, 1-(azetidin-1-yl)-2-(4-(2-((1S,2S)-2-(1-(5-ethylpyrimidin-2-yl)piperidin-4-yl)cyclopropyl)ethoxy)-2-fluorophenyl)ethanone] registered an EC50 of 5.5 nM.

Regarding `Fc1cc(OCC[C@H]2C[C@@H]2C2CCN(c3ncc(Cl)cn3)CC2)ccc1-n1cnnn1` [Example 37, 5-chloro-2-(4-((1R,2R)-2-(2-(3-fluoro-4-(1H-tetrazol-1-yl)phenoxy)ethyl)cyclopropyl)piperidin-1-yl)pyrimidine], a half-maximal response (EC50) required 6.8 nM.

The compound `CCc1cnc(N2CCC([C@H]3C[C@@H]3CCOc3ccc(-n4cnnn4)c(F)c3)CC2)nc1` [Example 38, 5-ethyl-2-(4-((1R,2R)-2-(2-(3-fluoro-4-(1H-tetrazol-1-yl)phenoxy)ethyl)cyclopropyl)piperidin-1-yl)pyrimidine] came in with an EC50 of 5.3 nM.

As usually defined, the EC50 is the concentration giving half of the maximal effect. Low values mean an effect from little substance, high ones a need for much substance.
